Patent US6492434B1, “Methods for inhibiting skin ulceration by use of cyanoacrylate adhesives” (Flowers PArk Ltd., priority 1995, dated 2002)

Test system: decubitus ulcers
Assay: Evaluation of n-butyl cyanoacrylate adhesive on inhibition of decubitus ulcers in 17 adult nursing home patients
Assay type: in vivo, human
Description: An evaluation of the effect of n-butyl cyanoacrylate adhesive on the inhibition of decubitus ulcers in 17 adult patients located in nine different nursing homes was conducted. In this example, 17 patients were selected based on a history of recurring decubitus ulcer formation or, based on medical evaluation, were deemed to be at high risk of developing decubitus ulcers. A prophylactic treatment regimen was then employed on these patients which regimen consisted of using conventional pressure ulcer preventative practices primarily involving periodic rotation of the patient as well as application of an n-butyl cyanoacrylate adhesive composition onto the intact skin areas which appeared likely to develop pressure ulcers by virtue of irritation and reddening of the skin or unbroken blister formation which is classified as a stage I decubitus ulcer or by application of the n-butyl cyanoacrylate composition onto intact skin adjacent to type II decubitus ulcers. Application of n-butyl cyanoacrylate consisted of application of about 1-5 drops of the n-butyl cyanoacrylate composition onto the surface skin area prone to ulceration wherein each drop corresponds to about 0.03 ml of cyanoacrylate.
The specific amount of n-butyl cyanoacrylate adhesive and point of application of the adhesive for each patient are set forth in the following Table I:
After application, the cyanoacrylate adhesive was allowed to form a polymeric film and, on average, reapplication of the adhesive was conducted every 24 hours until the evaluation was completed.

C=C(C#N)C(=O)OCCCC [n-butyl cyanoacrylate adhesive, n-butyl-2-cyanoacrylate]
expansion of stage II decubitus ulcer to adjacent skin areas (all patients treated in skin areas adjacent to stage II decubitus ulcer, plus conventional preventative practices): minimal expansion of the ulcer | progression to stage II decubitus ulcer formation (broken skin) (all patients with redness/irritation or blistering (stage I) of intact skin, plus conventional pressure ulcer preventative practices): did not progress to stage II decubitus ulcer formation | RESULT (patient 1, heel, redness 3 cm, 2 drops, reapplied about every 24 h, plus conventional preventative practices): NO BREAKDOWN OF SKIN ON HEEL | RESULT (patient 2, heel, redness 3 cm, 2 drops, reapplied about every 24 h, plus conventional practices): LESS PERSPIRATION AND NO IRRITATION | RESULT (patient 3, heels (2), blister (Stage I) 3-4 cm, 2 drops, reapplied about every 24 h, plus conventional practices): NO BREAKDOWN OF BLISTER TO STAGE II | RESULT (patient 4, heels (2) and elbows (2), redness 3-5 cm, 2 drops, reapplied about every 24 h, plus conventional practices): NO SKIN BREAKDOWN ON HEELS OR ELBOWS | RESULT (patient 5, cheek, redness ½-3 in, 2 drops, reapplied about every 24 h, plus conventional practices): NO IRRITATION DEVELOPED | RESULT (patient 6, lower leg, bruise 2-3 in, 4-5 drops, reapplied about every 24 h, plus conventional practices, listed as N-BUTYL CYANOACRYLATE ADHESIVES): NO SKIN BREAKDOWN | RESULT (patient 7, shoulder, bony prominence 3-4 cm, 3-4 drops, reapplied about every 24 h, plus conventional practices, listed as N-BUTYL CYANOACRYLATE ADHESIVES): SKIN DID NOT BREAKDOWN | RESULT (patient 8, hip, bony prominence 3-4 cm, 3-4 drops, reapplied about every 24 h, plus conventional practices): NO SKIN BREAKDOWN | RESULT (patient 9, heels (2), redness 5 cm, 1 drop, reapplied about every 24 h, plus conventional practices): NO IRRITATION/REDDENING LEFT | RESULT (patient 10, hip, blister (Stage I) 3-4 cm, 2 drops, treatment stopped): WARMING SENSATION UPON APPLICATION - | RESULT (patient 11, top of foot, redness 2-5 cm, 1 drop, reapplied about every 24 h, plus conventional practices): NO IRRITATION/REDDENlNG LEFT | RESULT (patient 12, heel, redness (scabbed over - healed stage II) 6-8 cm, 3 drops, reapplied about every 24 h, plus conventional practices): REDNESS HEALED UP | RESULT (patient 13, knees & heels, redness 2.5 cm, 3 drops, patient passed away due to other conditions): IRRITATION IMPROVED BUT PATIENT | RESULT (patient 14, heel, skin redness around Stage II ulcer 2.5 cm, 3 drops, reapplied about every 24 h, plus conventional practices): NO IRRITATION EVIDENT - HEELS ALMOST HEALED | RESULT (patient 15, heels (2), redness 2.5 cm, 3 drops, reapplied about every 24 h, plus conventional practices): PATIENT'S HEELS LOOK BETTER, | RESULT (patient 16, hip, redness (healed Stage II ulcer) 2 cm, 2-3 drops, reapplied about every 24 h, plus conventional practices): NO FURTHER BREAKDOWN, REDDENING STILL
